System: HCT-116 cell line
Assay: Inhibition of cell growth, tetrazolium salt (MTT) assay
Assay type: cell-based
Conditions: compound at 250 nM; for inhibition at 0.25 µM: Homo sapiens, HCT-116, HCT116 cells, read-out: % Inhibition HCT116 @ 250 nM; for % Inhibition HCT116 @ 250 nM: HCT116 cells, 0.25 µM
Procedure: Inhibition of Cell Growth: Assessment of Cytotoxicity:
Inhibition of cell growth was measured using the tetrazolium salt assay, which is based on the ability of viable cells to reduce 3-(4,5-dimethylthiazol-2-yl)-2,5-[2H]-diphenyltetrazolium bromide (MTT) to formazan (Mossman, Journal of Immunological Methods, vol. 65 (1983), pp. 55-58). The water-insoluble purple formazan product was then detected spectrophotometrically. The HCT-116 cell line was used as a representative cancer cell line and grown in 96-well plates. Cells were plated in McCoy's 5A Medium at a volume of 135 μl/well. Plates were incubated for four hours before addition of inhibitor compounds. Different concentrations of inhibitor compounds were added in 0.5% (v/v) dimethylsulfoxide (15 μLuwell), and cells were incubated at 37° C. (5% CO2) for three to five days. At the end of the incubation, MTT was added to a final concentration of 0.2 mg/mL, and cells were incubated for 4 hours more at 37° C. After centrifugation of the plates and removal of medium, the absorbance of the formazan (solubilized in dimethylsulfoxide) was measured at 540 nm. […] All results were compared to control cells treated only with 0.5% (v/v) dimethylsulfoxide.

Row | Structure (SMILES) | inhibition at 0.25 µM [%] | % Inhibition HCT116 @ 250 nM [%]
1 | Nc1nc(NC2CCN(S(=O)(=O)CCNCc3ccccc3Cl)CC2)sc1C(=O)c1c(F)cccc1F [Example S96] | 48 | –
2 | COc1ccccc1CNCCS(=O)(=O)N1CCC(Nc2nc(N)c(C(=O)c3c(F)cccc3F)s2)CC1 [Example S97] | 25 | –
3 | Cc1ccccc1CNCCS(=O)(=O)N1CCC(Nc2nc(N)c(C(=O)c3c(F)cccc3F)s2)CC1 [Example S98] | 49 | –
4 | Nc1nc(NC2CCN(S(=O)(=O)CCNCc3cccc(F)c3)CC2)sc1C(=O)c1c(F)cccc1F [Example S99] | 43 | –
5 | COc1cccc(CNCCS(=O)(=O)N2CCC(Nc3nc(N)c(C(=O)c4c(F)cccc4F)s3)CC2)c1 [Example S100] | 38 | –
6 | Cc1cccc(CNCCS(=O)(=O)N2CCC(Nc3nc(N)c(C(=O)c4c(F)cccc4F)s3)CC2)c1 [Example S101] | 80 | –
7 | Nc1nc(NC2CCN(S(=O)(=O)CCNCc3ccc(F)cc3)CC2)sc1C(=O)c1c(F)cccc1F [Example S102] | 57 | –
8 | Nc1nc(NC2CCN(S(=O)(=O)CCNCc3ccc(Cl)cc3)CC2)sc1C(=O)c1c(F)cccc1F [Example S103] | 25 | –
9 | COc1ccc(CNCCS(=O)(=O)N2CCC(Nc3nc(N)c(C(=O)c4c(F)cccc4F)s3)CC2)cc1 [Example S104] | 31 | –
10 | Cc1ccc(CNCCS(=O)(=O)N2CCC(Nc3nc(N)c(C(=O)c4c(F)cccc4F)s3)CC2)cc1 [Example S105] | 33 | –
11 | Nc1nc(NC2CCN(S(=O)(=O)CCNCC(F)(F)F)CC2)sc1C(=O)c1c(F)cccc1F [Example S106] | 98 | –
12 | CC(C)(C)CNCCS(=O)(=O)N1CCC(Nc2nc(N)c(C(=O)c3c(F)cccc3F)s2)CC1 [Example S107] | 98 | –
13 | COC(CNCCS(=O)(=O)N1CCC(Nc2nc(N)c(C(=O)c3c(F)cccc3F)s2)CC1)OC [Example S108] | 16 | –
14 | Nc1nc(NC2CCN(S(=O)(=O)CCNCC(O)c3ccccc3)CC2)sc1C(=O)c1c(F)cccc1F (stereo not drawn) [Example S109] | 19 | –
15 | CC(O)CNCCS(=O)(=O)N1CCC(Nc2nc(N)c(C(=O)c3c(F)cccc3F)s2)CC1 (stereo not drawn) [Example S110] | 16 | –
16 | CC(C)CNCCS(=O)(=O)N1CCC(Nc2nc(N)c(C(=O)c3c(F)cccc3F)s2)CC1 [Example S111] | 54 | –
17 | Nc1nc(NC2CCN(S(=O)(=O)CCNCCNc3ccccc3)CC2)sc1C(=O)c1c(F)cccc1F [Example S112] | 15 | –
18 | CC(=O)NCCNCCS(=O)(=O)N1CCC(Nc2nc(N)c(C(=O)c3c(F)cccc3F)s2)CC1 [Example S113] | – | 51
19 | CN(C)CCNCCS(=O)(=O)N1CCC(Nc2nc(N)c(C(=O)c3c(F)cccc3F)s2)CC1 [Example S114] | 49 | –
20 | Nc1nc(NC2CCN(S(=O)(=O)CCNCCO)CC2)sc1C(=O)c1c(F)cccc1F [Example S115] | 68 | –
21 | Nc1nc(NC2CCN(S(=O)(=O)CCNCCc3ccccc3)CC2)sc1C(=O)c1c(F)cccc1F [Example S116] | 60 | –

Row | Structure (SMILES) | inhibition at 0.25 µM [%] | % Inhibition HCT116 @ 250 nM [%]
22 | Nc1nc(NC2CCN(S(=O)(=O)CCNCCc3ccc(O)cc3)CC2)sc1C(=O)c1c(F)cccc1F [Example S117] | 86 | –
23 | Cc1ccc(CCNCCS(=O)(=O)N2CCC(Nc3nc(N)c(C(=O)c4c(F)cccc4F)s3)CC2)cc1 [Example S118] | 25 | –
24 | C#CCNCCS(=O)(=O)N1CCC(Nc2nc(N)c(C(=O)c3c(F)cccc3F)s2)CC1 [Example S119] | 20 | –
25 | C=CCNCCS(=O)(=O)N1CCC(Nc2nc(N)c(C(=O)c3c(F)cccc3F)s2)CC1 [Example S120] | 17 | –
26 | CC(C)(C)CCNCCS(=O)(=O)N1CCC(Nc2nc(N)c(C(=O)c3c(F)cccc3F)s2)CC1 [Example S121] | 20 | –
27 | CC(C)CCNCCS(=O)(=O)N1CCC(Nc2nc(N)c(C(=O)c3c(F)cccc3F)s2)CC1 [Example S122] | 54 | –
28 | CC(C)OCCCNCCS(=O)(=O)N1CCC(Nc2nc(N)c(C(=O)c3c(F)cccc3F)s2)CC1 [Example S123] | 15 | –
29 | Nc1nc(NC2CCN(S(=O)(=O)CCNCc3ccc(F)cc3F)CC2)sc1C(=O)c1c(F)cccc1F [Example S124] | 51 | –
30 | Nc1nc(NC2CCN(S(=O)(=O)CCNCc3cc(F)ccc3F)CC2)sc1C(=O)c1c(F)cccc1F [Example S125] | 49 | –
31 | Nc1nc(NC2CCN(S(=O)(=O)CCNCc3c(F)cccc3F)CC2)sc1C(=O)c1c(F)cccc1F [Example S126] | 68 | –
32 | Nc1nc(NC2CCN(S(=O)(=O)CCNCc3ccc(F)c(F)c3)CC2)sc1C(=O)c1c(F)cccc1F [Example S127] | 60 | –
33 | N#CCNCCS(=O)(=O)N1CCC(Nc2nc(N)c(C(=O)c3c(F)cccc3F)s2)CC1 [Example S128] | – | 86
34 | COC(=O)CNCCS(=O)(=O)N1CCC(Nc2nc(N)c(C(=O)c3c(F)cccc3F)s2)CC1 [Example S129] | 25 | –
35 | CC(CN(C)C)NCCS(=O)(=O)N1CCC(Nc2nc(N)c(C(=O)c3c(F)cccc3F)s2)CC1 (stereo not drawn) [Example S130] | 20 | –
36 | CC(CNCCS(=O)(=O)N1CCC(Nc2nc(N)c(C(=O)c3c(F)cccc3F)s2)CC1)N(C)C (stereo not drawn) [Example S131] | 17 | –
37 | N#CCCNCCS(=O)(=O)N1CCC(Nc2nc(N)c(C(=O)c3c(F)cccc3F)s2)CC1 [Example S132] | 20 | –
38 | CSCCNCCS(=O)(=O)N1CCC(Nc2nc(N)c(C(=O)c3c(F)cccc3F)s2)CC1 [Example S133] | 18 | –
39 | CC(C)N(CCNCCS(=O)(=O)N1CCC(Nc2nc(N)c(C(=O)c3c(F)cccc3F)s2)CC1)C(C)C [Example S134] | 17 | –
40 | CC(C)C(NCCS(=O)(=O)N1CCC(Nc2nc(N)c(C(=O)c3c(F)cccc3F)s2)CC1)C(C)C [Example S135] | 100 | –
41 | CC1CC(NCCS(=O)(=O)N2CCC(Nc3nc(N)c(C(=O)c4c(F)cccc4F)s3)CC2)CC(C)(C)C1 (stereo not drawn) [Example S136] | 81 | –
42 | Cc1ccc(CNCCS(=O)(=O)N2CCC(Nc3nc(N)c(C(=O)c4c(F)cccc4F)s3)CC2)c(C)c1 [Example S137] | 43 | –

Row | Structure (SMILES) | inhibition at 0.25 µM [%] | % Inhibition HCT116 @ 250 nM [%]
43 | CC(C)c1ccc(CNCCS(=O)(=O)N2CCC(Nc3nc(N)c(C(=O)c4c(F)cccc4F)s3)CC2)cc1 [Example S138] | 22 | –
44 | Nc1nc(NC2CCN(S(=O)(=O)CCNCC3CC3)CC2)sc1C(=O)c1c(F)cccc1F [Example S139] | 39 | –
45 | Nc1nc(NC2CCN(S(=O)(=O)CCNCCc3ccncc3)CC2)sc1C(=O)c1c(F)cccc1F [Example S140] | 25 | –
46 | CCC(NCCS(=O)(=O)N1CCC(Nc2nc(N)c(C(=O)c3c(F)cccc3F)s2)CC1)c1ccccc1 (stereo not drawn) [Example S141] | 78 | –
47 | Nc1nc(NC2CCN(S(=O)(=O)CCNCc3cccc(Cl)c3)CC2)sc1C(=O)c1c(F)cccc1F [Example S142] | 80 | –
48 | Cc1cc(C)cc(CNCCS(=O)(=O)N2CCC(Nc3nc(N)c(C(=O)c4c(F)cccc4F)s3)CC2)c1 [Example S143] | 55 | –
49 | CC(NCCS(=O)(=O)N1CCC(Nc2nc(N)c(C(=O)c3c(F)cccc3F)s2)CC1)c1ccc(F)cc1 (stereo not drawn) [Example S144] | 43 | –
50 | CCCC(C)(C)NCCS(=O)(=O)N1CCC(Nc2nc(N)c(C(=O)c3c(F)cccc3F)s2)CC1 [Example S145] | 96 | –
51 | CCC(COC)NCCS(=O)(=O)N1CCC(Nc2nc(N)c(C(=O)c3c(F)cccc3F)s2)CC1 (stereo not drawn) [Example S146] | 42 | –
52 | Nc1nc(NC2CCN(S(=O)(=O)CCNCCOCCO)CC2)sc1C(=O)c1c(F)cccc1F [Example S147] | 23 | –
53 | Nc1nc(NC2CCN(S(=O)(=O)CCNCCc3cccs3)CC2)sc1C(=O)c1c(F)cccc1F [Example S148] | 34 | –
54 | Nc1nc(NC2CCN(S(=O)(=O)CCNCCOc3ccccc3)CC2)sc1C(=O)c1c(F)cccc1F [Example S149] | 36 | –
55 | Nc1nc(NC2CCN(S(=O)(=O)CCNC3c4ccccc4CC3O)CC2)sc1C(=O)c1c(F)cccc1F (stereo not drawn) [Example S150] | 33 | –
56 | C=C(C)CNCCS(=O)(=O)N1CCC(Nc2nc(N)c(C(=O)c3c(F)cccc3F)s2)CC1 [Example S151] | 50 | –
57 | Nc1nc(NC2CCN(S(=O)(=O)CCNC3CCSC3=O)CC2)sc1C(=O)c1c(F)cccc1F (stereo not drawn) [Example S152] | 95 | –
58 | Nc1nc(NC2CCN(S(=O)(=O)CCN[C@H]3CCOC3=O)CC2)sc1C(=O)c1c(F)cccc1F [Example S153] | 100 | –
59 | Nc1nc(NC2CCN(S(=O)(=O)CCNCc3cc(F)cc(F)c3)CC2)sc1C(=O)c1c(F)cccc1F [Example S154] | 31 | –
60 | COC(=O)[C@@H](C)NCCS(=O)(=O)N1CCC(Nc2nc(N)c(C(=O)c3c(F)cccc3F)s2)CC1 [Example S155] | 96 | –
61 | CC(C)[C@@H](CO)NCCS(=O)(=O)N1CCC(Nc2nc(N)c(C(=O)c3c(F)cccc3F)s2)CC1 [Example S156] | 17 | –
62 | CN1CCC(NCCS(=O)(=O)N2CCC(Nc3nc(N)c(C(=O)c4c(F)cccc4F)s3)CC2)C1=O (stereo not drawn) [Example S157] | 16 | –
63 | Nc1nc(NC2CCN(S(=O)(=O)CCNCc3cccc(F)c3F)CC2)sc1C(=O)c1c(F)cccc1F [Example S158] | 73 | –
